Source: patent publication US20260297081A1, “COMPOUNDS AND METHODS OF TREATING CANCERS” (Cullgen Inc., priority 2023, published 2026)

Columns and labels:
Type in all cases: cell-based
Calu-1 cells = test: Anti-proliferation (viability) of NSCLC Calu-1 cells, 3 days (Table 7, FIG. 2B); conditions: Homo sapiens, 72 h; Calu-1 cells, 3 days, 10-point serial dilution; read-out: GI IC50 in Calu-1
Summary of the method: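 Treatment length differs by line: Calu-1 cells receive degrader for 3 days, T47D cells for 6 days, each over a 10-point dilution series. A warhead-modified analogue with unchanged DDB1 binder and linker served as the non-CDK4-binding control.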

MCF7 cells = test: Anti-proliferation (viability) of MCF7 cells (Table 7, FIG. 2B); conditions: Homo sapiens, MCF7, MCF7 cells, 3-6 days, 10-point serial dilution; read-out: GI IC50 in MCF-7
CDK4 = CDK4 (Homo sapiens, UniProt P11802+Q16531); test: CDK4 percentage degradation in Calu-1 cells (Table 6); design: Cells that express cyclin D1-3 and CDK4/6 proteins were treated with heterobifunctional compounds; endogenous in cells; host or cells: Calu-1; conditions: 16 hours; for inhibition at 0.04 µM: 40 nM; for inhibition at 0.2 µM: 200 nM
Chain of CDK4 (P11802 2-303 limits assumed): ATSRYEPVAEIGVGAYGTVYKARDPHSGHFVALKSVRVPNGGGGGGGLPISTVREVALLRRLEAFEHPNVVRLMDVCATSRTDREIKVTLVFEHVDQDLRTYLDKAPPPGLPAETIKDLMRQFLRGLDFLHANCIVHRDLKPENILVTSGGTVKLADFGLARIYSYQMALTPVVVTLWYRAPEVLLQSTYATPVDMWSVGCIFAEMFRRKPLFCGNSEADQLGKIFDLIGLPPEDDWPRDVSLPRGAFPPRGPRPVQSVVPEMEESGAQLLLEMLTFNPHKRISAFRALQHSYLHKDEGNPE
Chain of CDK4 (P24385 whole entry partner): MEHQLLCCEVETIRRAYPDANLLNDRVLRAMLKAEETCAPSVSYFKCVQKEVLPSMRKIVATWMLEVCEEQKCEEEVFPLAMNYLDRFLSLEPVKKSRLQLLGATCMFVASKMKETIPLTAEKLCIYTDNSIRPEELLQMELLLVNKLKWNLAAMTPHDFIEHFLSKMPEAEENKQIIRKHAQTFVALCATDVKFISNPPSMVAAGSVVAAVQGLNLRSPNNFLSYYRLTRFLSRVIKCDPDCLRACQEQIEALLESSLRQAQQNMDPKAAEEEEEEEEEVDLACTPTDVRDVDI
Chain of CDK4 (Q16531 2-1140 limits assumed): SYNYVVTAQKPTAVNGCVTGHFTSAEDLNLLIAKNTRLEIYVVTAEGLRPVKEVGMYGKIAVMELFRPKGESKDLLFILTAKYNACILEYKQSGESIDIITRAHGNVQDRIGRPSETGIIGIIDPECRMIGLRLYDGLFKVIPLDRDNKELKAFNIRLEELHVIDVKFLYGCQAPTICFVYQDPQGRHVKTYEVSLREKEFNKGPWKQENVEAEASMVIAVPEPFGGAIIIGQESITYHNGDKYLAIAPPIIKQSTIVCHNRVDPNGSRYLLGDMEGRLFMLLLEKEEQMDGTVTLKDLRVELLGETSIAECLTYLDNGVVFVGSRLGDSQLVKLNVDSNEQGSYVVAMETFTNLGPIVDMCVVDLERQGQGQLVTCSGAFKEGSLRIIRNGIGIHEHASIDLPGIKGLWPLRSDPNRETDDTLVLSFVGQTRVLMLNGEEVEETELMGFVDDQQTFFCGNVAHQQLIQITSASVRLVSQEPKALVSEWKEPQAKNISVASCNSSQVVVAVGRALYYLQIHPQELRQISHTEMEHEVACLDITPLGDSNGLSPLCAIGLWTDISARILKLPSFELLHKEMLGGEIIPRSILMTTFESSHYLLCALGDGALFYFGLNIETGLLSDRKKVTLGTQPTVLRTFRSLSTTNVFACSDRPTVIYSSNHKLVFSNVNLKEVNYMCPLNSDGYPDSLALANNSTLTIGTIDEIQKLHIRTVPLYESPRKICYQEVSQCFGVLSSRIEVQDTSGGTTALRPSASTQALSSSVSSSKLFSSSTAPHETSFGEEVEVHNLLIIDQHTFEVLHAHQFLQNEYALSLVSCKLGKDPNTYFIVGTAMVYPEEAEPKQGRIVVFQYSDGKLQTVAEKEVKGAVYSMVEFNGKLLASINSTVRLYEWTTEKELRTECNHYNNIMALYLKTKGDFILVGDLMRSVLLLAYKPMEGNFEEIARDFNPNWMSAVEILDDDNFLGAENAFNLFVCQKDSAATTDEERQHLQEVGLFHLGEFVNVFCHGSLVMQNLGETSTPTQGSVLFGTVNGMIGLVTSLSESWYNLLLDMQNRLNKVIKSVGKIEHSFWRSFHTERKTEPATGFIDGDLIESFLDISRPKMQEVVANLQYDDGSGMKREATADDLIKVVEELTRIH
Summary of the method: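 Calu-1 cells exposed to heterobifunctional compounds at 40 nM or 200 nM for 16 h. Cyclin D1 and CDK4 levels measured by Western blot of RIPA lysates (BCA-normalised loading), bands quantified by densitometry and expressed as percentage degradation.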

Row | IC50 (Calu-1 cells) [nM] | IC50 (MCF7 cells) [nM] | inhibition at 0.04 µM (CDK4) [%] | inhibition at 0.2 µM (CDK4) [%] | SMILES
1 | 10 to 50 | 50 to 100 | 50 to 80 | – | CNc1ccc(C(=O)Nc2nc(C)c(C)s2)c(NCCCCCCCNC(=O)CN2CCN(c3ccc(Nc4ncc5c(C)c(C(C)=O)c(=O)n(C6CCCC6)c5n4)nc3)CC2)n1 [CPD-4, 2-((7-(2-(4-(6-((6-acetyl-8-cyclopentyl-5-methyl-7-oxo-7,8-dihydropyrido[2,3-d]pyrimidin-2-yl)amino)pyridin-3-yl)piperazin-1-yl)acetamido)heptyl)amino)-N-(4,5-dimethylthiazol-2-yl)-6-(methylamino)nicotinamide]
2 | ≤ 10 | < 50 | 50 to 80 | > 80 | CNc1ccc(C(=O)Nc2ccc(N(C)C)nn2)c(NCC2CCN(C(=O)CCN3CCN(c4ccc(Nc5ncc6c(C)c(C(C)=O)c(=O)n(C7CCCC7)c6n5)nc4)CC3)CC2)n1 [CPD-146, 2-(((1-(3-(4-(6-((6-acetyl-8-cyclopentyl-5-methyl-7-oxo-7,8-dihydropyrido[2,3-d]pyrimidin-2-yl)amino)pyridin-3-yl)piperazin-1-yl)propanoyl)piperidin-4-yl)methyl)amino)-N-(6-(dimethylamino)pyridazin-3-yl)-6-(methylamino)nicotinamide]
3 | ≤ 10 | 50 to 100 | 50 to 80 | > 80 | CNc1ccc(C(=O)Nc2ccc(N(C)C)nn2)c(NC2CC(NC(=O)CCN3CCN(c4ccc(Nc5ncc6c(C)c(C(C)=O)c(=O)n(C7CCCC7)c6n5)nc4)CC3)C2)n1 (centres unmarked) [CPD-150, 2-((3-(3-(4-(6-((6-acetyl-8-cyclopentyl-5-methyl-7-oxo-7,8-dihydropyrido[2,3-d]pyrimidin-2-yl)amino)pyridin-3-yl)piperazin-1-yl)propanamido)cyclobutyl)amino)-N-(6-(dimethylamino)pyridazin-3-yl)-6-(methylamino)nicotinamide]
4 | ≤ 10 | 50 to 100 | 50 to 80 | > 80 | CNc1ccc(C(=O)Nc2ccc(N(C)C)nn2)c(NC2CC(C(=O)NCCN3CCN(c4ccc(Nc5ncc6c(C)c(C(C)=O)c(=O)n(C7CCCC7)c6n5)nc4)CC3)C2)n1 (centres unmarked) [CPD-157, 2-((3-((2-(4-(6-((6-acetyl-8-cyclopentyl-5-methyl-7-oxo-7,8-dihydropyrido[2,3-d]pyrimidin-2-yl)amino)pyridin-3-yl)piperazin-1-yl)ethyl)carbamoyl)cyclobutyl)amino)-N-(6-(dimethylamino)pyridazin-3-yl)-6-(methylamino)nicotinamide]
5 | ≤ 10 | < 50 | 50 to 80 | > 80 | CNc1ccc(C(=O)Nc2ccc(N(C)C)nn2)c(NC2CCC3(C2)CN(C(=O)CCN2CCN(c4ccc(Nc5ncc6c(C)c(C(C)=O)c(=O)n(C7CCCC7)c6n5)nc4)CC2)C3)n1 (centres unmarked) [CPD-158, 2-((2-(3-(4-(6-((6-acetyl-8-cyclopentyl-5-methyl-7-oxo-7,8-dihydropyrido[2,3-d]pyrimidin-2-yl)amino)pyridin-3-yl)piperazin-1-yl)propanoyl)-2-azaspiro[3.4]octan-6-yl)amino)-N-(6-(dimethylamino)pyridazin-3-yl)-6-(methylamino)nicotinamide]
6 | ≤ 10 | > 100 | 50 to 80 | > 80 | CNc1ccc(C(=O)Nc2cc(C)n(C)n2)c(NC2CC(CNC(=O)CN3CCN(c4ccc(Nc5ncc6c(C)c(C(C)=O)c(=O)n(C7CCCC7)c6n5)nc4)CC3)C2)n1 (centres unmarked) [CPD-165, 2-((3-((2-(4-(6-((6-acetyl-8-cyclopentyl-5-methyl-7-oxo-7,8-dihydropyrido[2,3-d]pyrimidin-2-yl)amino)pyridin-3-yl)piperazin-1-yl)acetamido)methyl)cyclobutyl)amino)-N-(1,5-dimethyl-1H-pyrazol-3-yl)-6-(methylamino)nicotinamide]
7 | ≤ 10 | < 50 | > 80 | > 80 | CNc1ccc(C(=O)Nc2ccc(N(C)C)nn2)c(NC2CC(CNC(=O)C(C)(C)N3CCN(c4ccc(Nc5ncc6c(C)c(C(C)=O)c(=O)n(C7CCCC7)c6n5)nc4)CC3)C2)n1 (centres unmarked) [CPD-167, 2-((3-((2-(4-(6-((6-acetyl-8-cyclopentyl-5-methyl-7-oxo-7,8-dihydropyrido[2,3-d]pyrimidin-2-yl)amino)pyridin-3-yl)piperazin-1-yl)-2-methylpropanamido)methyl)cyclobutyl)amino)-N-(6-(dimethylamino)pyridazin-3-yl)-6-(methylamino)nicotinamide]
8 | ≤ 10 | 50 to 100 | 50 to 80 | > 80 | CNc1ccc(C(=O)Nc2cccc(C)n2)c(NC2CC(CNC(=O)CN3CCN(c4ccc(Nc5ncc6c(C)c(C(C)=O)c(=O)n(C7CCCC7)c6n5)nc4)CC3)C2)n1 (centres unmarked) [CPD-170, 2-((3-((2-(4-(6-((6-acetyl-8-cyclopentyl-5-methyl-7-oxo-7,8-dihydropyrido[2,3-d]pyrimidin-2-yl)amino)pyridin-3-yl)piperazin-1-yl)acetamido)methyl)cyclobutyl)amino)-6-(methylamino)-N-(6-methylpyridin-2-yl)nicotinamide]
9 | ≤ 10 | < 50 | > 80 | > 80 | CNc1ccc(C(=O)Nc2cccc(C)n2)c(NC2CC3(C2)CN(C(=O)C2(CN4CCN(c5ccc(Nc6ncc7c(C)c(C(C)=O)c(=O)n(C8CCCC8)c7n6)nc5)CC4)CC2)C3)n1 [CPD-171, 2-((2-(1-((4-(6-((6-acetyl-8-cyclopentyl-5-methyl-7-oxo-7,8-dihydropyrido[2,3-d]pyrimidin-2-yl)amino)pyridin-3-yl)piperazin-1-yl)methyl)cyclopropane-1-carbonyl)-2-azaspiro[3.3]heptan-6-yl)amino)-6-(methylamino)-N-(6-methylpyridin-2-yl)nicotinamide]
10 | ≤ 10 | < 50 | > 80 | > 80 | CNc1ccc(C(=O)Nc2cccc(C3CC3)n2)c(NC2CC3(C2)CN(C(=O)C2(CN4CCN(c5ccc(Nc6ncc7c(C)c(C(C)=O)c(=O)n(C8CCCC8)c7n6)nc5)CC4)CC2)C3)n1 [CPD-173, 2-((2-(1-((4-(6-((6-acetyl-8-cyclopentyl-5-methyl-7-oxo-7,8-dihydropyrido[2,3-d]pyrimidin-2-yl)amino)pyridin-3-yl)piperazin-1-yl)methyl)cyclopropane-1-carbonyl)-2-azaspiro[3.3]heptan-6-yl)amino)-N-(6-cyclopropylpyridin-2-yl)-6-(methylamino)nicotinamide]
11 | ≤ 10 | > 100 | – | – | CC(=O)c1c(C)c2cnc(Nc3ccc(N4CCN(C5CCN(C(=O)[C@H]6CC[C@H](Nc7nc(NC(C)C)ccc7C(=O)Nc7cn8c(n7)CCC8)CC6)C5)CC4)cn3)nc2n(C2CCCC2)c1=O (stereo partly drawn) [CPD-568, 2-((trans-4-(3-(4-(6-((6-acetyl-8-cyclopentyl-5-methyl-7-oxo-7,8-dihydropyrido[2,3-d]pyrimidin-2-yl)amino)pyridin-3-yl)piperazin-1-yl)pyrrolidine-1-carbonyl)cyclohexyl)amino)-N-(6,7-dihydro-5H-pyrrolo[1,2-a]imidazol-2-yl)-6-(isopropylamino)nicotinamide]
12 | ≥ 50 | > 100 | – | – | [2H]C([2H])([2H])Nc1ccc(C(=O)Nc2cn3c(n2)CCC3)c(N[C@H]2CC[C@H](C(=O)N3CCC(N4CCN(c5ccc(Nc6ncc7c(C)c(C(C)=O)c(=O)n(C8CCCC8)c7n6)nc5)CC4)C3)CC2)n1 (stereo partly drawn) [CPD-569, 2-((trans-4-(3-(4-(6-((6-acetyl-8-cyclopentyl-5-methyl-7-oxo-7,8-dihydropyrido[2,3-d]pyrimidin-2-yl)amino)pyridin-3-yl)piperazin-1-yl)pyrrolidine-1-carbonyl)cyclohexyl)amino)-N-(6,7-dihydro-5H-pyrrolo[1,2-a]imidazol-2-yl)-6-((methyl-d3)amino)nicotinamide]
13 | ≤ 10 | < 50 | – | – | CC(=O)c1c(C)c2cnc(Nc3ccc(N4CCN(C5CCN(C(=O)[C@H]6CC[C@H](Nc7nc(C(F)(F)F)ccc7C(=O)Nc7ccc(N(C)C)nn7)CC6)C5)CC4)cn3)nc2n(C2CCCC2)c1=O (stereo partly drawn) [CPD-571, 2-((trans-4-(3-(4-(6-((6-acetyl-8-cyclopentyl-5-methyl-7-oxo-7,8-dihydropyrido[2,3-d]pyrimidin-2-yl)amino)pyridin-3-yl)piperazin-1-yl)pyrrolidine-1-carbonyl)cyclohexyl)amino)-N-(6-(dimethylamino)pyridazin-3-yl)-6-(trifluoromethyl)nicotinamide]
14 | ≤ 10 | 50 to 100 | – | – | CC(=O)c1c(C)c2cnc(Nc3ccc(N4CCN(C5CCN(C(=O)C6(F)CCC(Nc7nc(NC(C)C)ccc7C(=O)Nc7ccc(N(C)C)nn7)CC6)C5)CC4)cn3)nc2n(C2CCCC2)c1=O (centres unmarked) [CPD-572, 2-((4-(3-(4-(6-((6-acetyl-8-cyclopentyl-5-methyl-7-oxo-7,8-dihydropyrido[2,3-d]pyrimidin-2-yl)amino)pyridin-3-yl)piperazin-1-yl)pyrrolidine-1-carbonyl)-4-fluorocyclohexyl)amino)-N-(6-(dimethylamino)pyridazin-3-yl)-6-(isopropylamino)nicotinamide]
